Measurements reported in patent US20260242419A1, “A CYCLIC PEPTIDE FOR TRAPPING INTERLEUKIN-1 BETA” (Merck Sharp & Dohme LLC, priority 2023, published 2026).
Read-outs that look alike come from different tables or passages of the source. Starred links: 1 amine or outer side, 2 acyl side, 3 side chain; linkers in the order of their positions; H or OH if unused. Non-standard residues stand in square brackets, D forms with d. Residues, ends and D or L forms follow the SMILES beside them. Phe(4-(trans-4-COOH-cHex)) = N[C@@H](Cc1ccc([C@H]2CC[C@H](C(=O)O)CC2)cc1)C(=O)O; Phe(4-(cis-4-COOH-cHex)) = N[C@@H](Cc1ccc([C@H]2CC[C@@H](C(=O)O)CC2)cc1)C(=O)O; Phe(4-(5-CO2H-2-pyrimidyl)) = N[C@@H](Cc1ccc(-c2ncc(C(=O)O)cn2)cc1)C(=O)O; dPro(4R-(4-pyridylmethyl)) = O=C(O)[C@H]1C[C@@H](Cc2ccncc2)CN1; Trp(βS-Me,4-F) = C[C@@H](c1c[nH]c2cccc(F)c12)[C@H](N)C(=O)O; Bip(4'-COOH) = N[C@@H](Cc1ccc(-c2ccc(C(=O)O)cc2)cc1)C(=O)O; Ala(1-bicyclo(1.1.1)pentyl) = N[C@@H](CC12CC(C1)C2)C(=O)O; dPro(4R-Bzl(4-F)) = O=C(O)[C@H]1C[C@@H](Cc2ccc(F)cc2)CN1; X4 = O=C([C@H]1[C@@H](Cc2ccncc2)CCN1[*:1])[*:2]; Ala(pyrimidin-5-yl) = N[C@@H](Cc1cncnc1)C(=O)O; Phe(4-COOH) = N[C@@H](Cc1ccc(C(=O)O)cc1)C(=O)O; Ala(2-pyrazinyl) = N[C@@H](Cc1cnccn1)C(=O)O; Pro(cis-4-F) = O=C(O)[C@@H]1C[C@H](F)CN1; Ala(4-THP) = N[C@@H](CC1CCOCC1)C(=O)O; Dap(CONH2) = NC(=O)NC[C@H](N)C(=O)O; cisHyp = O=C(O)[C@@H]1C[C@H](O)CN1; d(αMeD) = C[C@@](N)(CC(=O)O)C(=O)O; h4Pal = N[C@@H](CCc1ccncc1)C(=O)O; 4Pal = N[C@@H](Cc1ccncc1)C(=O)O; d3Pal = N[C@H](Cc1cccnc1)C(=O)O; aThr = C[C@H](O)[C@H](N)C(=O)O; αMeD = C[C@](N)(CC(=O)O)C(=O)O; d(αMeS) = C[C@@](N)(CO)C(=O)O; Dab = NCC[C@H](N)C(=O)O; Aib = CC(C)(N)C(=O)O

Molecular target: T1, IL-1β (Homo sapiens, UniProt P01584)
T1 construct: purchased BioLegend 579404
Assay: IL-6 assay in MRC5 cells: inhibition of IL-1β induced IL-6 secretion (AlphaLISA)
Assay type: cell-based
Details: inhibition of IL-1β induced IL-6 secretion in MRC5 cells, read-out: MRC5 IC50
How it was run: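 Compound was pre-incubated 1 h at ambient temperature with recombinant human IL-1β at 2λ EC80 before adding human lung fibroblast MRC5 cells (3000/well) in EMEM with 0.025% BSA. After overnight culture at 37 °C, 5% CO2, secreted IL-6 in conditioned medium was measured by AlphaLISA; IC50 from 4-parameter logistic fits.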

T1 sequence (P01584 117-269): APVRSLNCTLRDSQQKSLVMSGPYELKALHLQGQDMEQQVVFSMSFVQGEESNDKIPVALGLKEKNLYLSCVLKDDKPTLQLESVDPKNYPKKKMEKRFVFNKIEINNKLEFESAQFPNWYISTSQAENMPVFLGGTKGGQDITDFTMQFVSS

| SMILES | IC50 | IC50 (compound pre-incubated 1 hour with recombinant human IL-1β) |
| --- | --- | --- |
| C[C@@H](c1c[nH]c2cccc(F)c12)[C@@H]1NC(=O)[C@@H]2C[C@H](F)CN2C(=O)CNC(=O)[C@H](Cc2ccc(C(=O)O)cc2)NC(=O)[C@H](Cc2ccncc2)NC(=O)[C@H](Cc2ccc([C@H]3CC[C@@H](C(=O)O)CC3)cc2)NC(=O)[C@H]2C[C@@H](Cc3ccc(F)cc3)CN2C(=O)CNC(=O)[C@H](CCN)NC(=O)[C@H](CCC(N)=O)NC(=O)[C@H](Cc2cnccn2)NC(=O)C(C)(C)NC(=O)[C@H](Cc2c[nH]c3ccccc23)NC(=O)[C@H](CCC(=O)O)NC(=O)C(C)(C)NC1=O [Example 117] (cyclo([Phe(4-(cis-4-COOH-cHex))][4Pal][Phe(4-COOH)]G[Pro(cis-4-F)][Trp(βS-Me,4-F)][Aib]EW[Aib][Ala(2-pyrazinyl)]Q[Dab]G[dPro(4R-Bzl(4-F))])) | 0.027 nM |  |
| C[C@@H](c1c[nH]c2cccc(F)c12)[C@@H]1NC(=O)[C@@H]2C[C@H](F)CN2C(=O)CNC(=O)[C@H](Cc2ccc(C(=O)O)cc2)NC(=O)[C@H](Cc2ccncc2)NC(=O)[C@H](Cc2ccc(-c3ncc(C(=O)O)cn3)cc2)NC(=O)[C@H]2C[C@@H](Cc3ccc(F)cc3)CN2C(=O)CNC(=O)[C@H](CCN)NC(=O)[C@H](CCC(N)=O)NC(=O)[C@H](Cc2cncnc2)NC(=O)C(C)(C)NC(=O)[C@H](Cc2c[nH]c3ccccc23)NC(=O)[C@H](CCC(=O)O)NC(=O)C(C)(C)NC1=O [Example 38] (cyclo([Phe(4-(5-CO2H-2-pyrimidyl))][4Pal][Phe(4-COOH)]G[Pro(cis-4-F)][Trp(βS-Me,4-F)][Aib]EW[Aib][Ala(pyrimidin-5-yl)]Q[Dab]G[dPro(4R-Bzl(4-F))])) | 0.041 nM |  |
| C[C@H](O)[C@@H]1NC(=O)C(C)(C)NC(=O)[C@H]([C@@H](C)c2c[nH]c3cccc(F)c23)NC(=O)[C@@H]2C[C@H](O)CN2C(=O)CNC(=O)[C@H](Cc2ccc(C(=O)O)cc2)NC(=O)[C@H](CC23CC(C2)C3)NC(=O)[C@H](Cc2ccc(-c3ccc(C(=O)O)cc3)cc2)NC(=O)[C@H]2C[C@@H](Cc3ccncc3)CN2C(=O)CNC(=O)[C@H](CCN)NC(=O)[C@H](CCC(N)=O)NC(=O)[C@H](Cc2cncnc2)NC(=O)[C@@](C)(CC(=O)O)NC(=O)[C@H](Cc2c[nH]c3ccccc23)NC1=O [Example 182] (cyclo([Bip(4'-COOH)][Ala(1-bicyclo(1.1.1)pentyl)][Phe(4-COOH)]G[cisHyp][Trp(βS-Me,4-F)][Aib][aThr]W[d(αMeD)][Ala(pyrimidin-5-yl)]Q[Dab]G[dPro(4R-(4-pyridylmethyl))])) | 0.049 nM |  |
| C[C@@H](c1c[nH]c2cccc(F)c12)[C@@H]1NC(=O)[C@@H]2C[C@H](F)CN2C(=O)CNC(=O)[C@H](Cc2ccc(C(=O)O)cc2)NC(=O)[C@H](Cc2ccncc2)NC(=O)[C@H](Cc2ccc(-c3ccc(C(=O)O)cc3)cc2)NC(=O)[C@H]2[C@@H](Cc3ccncc3)CCN2C(=O)CNC(=O)[C@H](CCN)NC(=O)[C@H](CCC(N)=O)NC(=O)[C@H](CCc2ccncc2)NC(=O)[C@@](C)(CC(=O)O)NC(=O)[C@H](Cc2c[nH]c3ccccc23)NC(=O)[C@H](CO)NC(=O)C(C)(C)NC1=O [Example 222] (cyclo([Bip(4'-COOH)][4Pal][Phe(4-COOH)]G[Pro(cis-4-F)][Trp(βS-Me,4-F)][Aib]SW[d(αMeD)][h4Pal]Q[Dab]G[X4])) | 0.02 nM |  |
| C[C@@H](c1c[nH]c2cccc(F)c12)[C@@H]1NC(=O)[C@@H]2C[C@H](F)CN2C(=O)CNC(=O)[C@H](Cc2ccc(C(=O)O)cc2)NC(=O)[C@H](Cc2ccncc2)NC(=O)[C@H](Cc2ccc(-c3ccc(C(=O)O)cc3)cc2)NC(=O)[C@H]2C[C@@H](Cc3ccc(F)cc3)CN2C(=O)CNC(=O)[C@H](CCN)NC(=O)[C@H](CCC(N)=O)NC(=O)[C@H](Cc2cncnc2)NC(=O)[C@@](C)(CO)NC(=O)[C@H](Cc2c[nH]c3ccccc23)NC(=O)[C@H](CCC(=O)O)NC(=O)C(C)(C)NC1=O [Example 23] (cyclo([Bip(4'-COOH)][4Pal][Phe(4-COOH)]G[Pro(cis-4-F)][Trp(βS-Me,4-F)][Aib]EW[d(αMeS)][Ala(pyrimidin-5-yl)]Q[Dab]G[dPro(4R-Bzl(4-F))])) | 0.018 nM |  |
| C[C@@H](c1c[nH]c2cccc(F)c12)[C@@H]1NC(=O)[C@@H]2C[C@H](F)CN2C(=O)CNC(=O)[C@H](Cc2ccc(C(=O)O)cc2)NC(=O)[C@H](Cc2ccncc2)NC(=O)[C@H](Cc2ccc(-c3ccc(C(=O)O)cc3)cc2)NC(=O)[C@H]2[C@@H](Cc3ccncc3)CCN2C(=O)CNC(=O)[C@H](CNC(N)=O)NC(=O)[C@H](CCC(N)=O)NC(=O)[C@H](CCc2ccncc2)NC(=O)[C@@](C)(CC(=O)O)NC(=O)[C@H](Cc2c[nH]c3ccccc23)NC(=O)[C@H](CO)NC(=O)C(C)(C)NC1=O [Example 223] (cyclo([Bip(4'-COOH)][4Pal][Phe(4-COOH)]G[Pro(cis-4-F)][Trp(βS-Me,4-F)][Aib]SW[d(αMeD)][h4Pal]Q[Dap(CONH2)]G[X4])) | 0.027 nM |  |
| C[C@H](O)[C@@H]1NC(=O)C(C)(C)NC(=O)[C@H]([C@@H](C)c2c[nH]c3cccc(F)c23)NC(=O)[C@@H]2C[C@H](F)CN2C(=O)CNC(=O)[C@H](Cc2ccc(C(=O)O)cc2)NC(=O)[C@H](Cc2ccncc2)NC(=O)[C@H](Cc2ccc(-c3ccc(C(=O)O)cc3)cc2)NC(=O)[C@H]2C[C@@H](Cc3ccncc3)CN2C(=O)CNC(=O)[C@H](CCN)NC(=O)[C@H](CCC(N)=O)NC(=O)[C@H](CC2CCOCC2)NC(=O)[C@@](C)(CC(=O)O)NC(=O)[C@H](Cc2c[nH]c3ccccc23)NC1=O [Example 353] (cyclo([Bip(4'-COOH)][4Pal][Phe(4-COOH)]G[Pro(cis-4-F)][Trp(βS-Me,4-F)][Aib][aThr]W[d(αMeD)][Ala(4-THP)]Q[Dab]G[dPro(4R-(4-pyridylmethyl))])) | 0.017 nM |  |
| C[C@@H](c1c[nH]c2cccc(F)c12)[C@@H]1NC(=O)[C@@H]2C[C@H](F)CN2C(=O)CNC(=O)[C@H](Cc2ccc(C(=O)O)cc2)NC(=O)[C@H](Cc2ccncc2)NC(=O)[C@H](Cc2ccc([C@H]3CC[C@H](C(=O)O)CC3)cc2)NC(=O)[C@H]2C[C@@H](Cc3ccc(F)cc3)CN2C(=O)CNC(=O)[C@H](CCN)NC(=O)[C@H](CCC(N)=O)NC(=O)[C@H](Cc2cncnc2)NC(=O)C(C)(C)NC(=O)[C@H](Cc2c[nH]c3ccccc23)NC(=O)[C@H](CCC(=O)O)NC(=O)C(C)(C)NC1=O [Example 114] (cyclo([Phe(4-(trans-4-COOH-cHex))][4Pal][Phe(4-COOH)]G[Pro(cis-4-F)][Trp(βS-Me,4-F)][Aib]EW[Aib][Ala(pyrimidin-5-yl)]Q[Dab]G[dPro(4R-Bzl(4-F))])) | 0.035 nM |  |
| C[C@@H](c1c[nH]c2cccc(F)c12)[C@@H]1NC(=O)[C@@H]2C[C@H](F)CN2C(=O)CNC(=O)[C@H](Cc2ccc(C(=O)O)cc2)NC(=O)[C@H](Cc2ccncc2)NC(=O)[C@H](Cc2ccc(-c3ccc(C(=O)O)cc3)cc2)NC(=O)[C@H]2C[C@@H](Cc3ccncc3)CN2C(=O)CNC(=O)[C@H](CCN)NC(=O)[C@H](CCC(N)=O)NC(=O)[C@H](CC2CCOCC2)NC(=O)[C@](C)(CC(=O)O)NC(=O)[C@H](Cc2c[nH]c3ccccc23)NC(=O)[C@H](CO)NC(=O)C(C)(C)NC1=O [Example 200] (cyclo([Bip(4'-COOH)][4Pal][Phe(4-COOH)]G[Pro(cis-4-F)][Trp(βS-Me,4-F)][Aib]SW[αMeD][Ala(4-THP)]Q[Dab]G[dPro(4R-(4-pyridylmethyl))])) | 0.014 nM |  |
| C[C@@H](c1c[nH]c2cccc(F)c12)[C@@H]1NC(=O)[C@@H]2C[C@H](F)CN2C(=O)CNC(=O)[C@H](Cc2ccc(C(=O)O)cc2)NC(=O)[C@H](Cc2ccncc2)NC(=O)[C@H](Cc2ccc(-c3ccc(C(=O)O)cc3)cc2)NC(=O)[C@H]2[C@@H](Cc3ccncc3)CCN2C(=O)CNC(=O)[C@H](CCN)NC(=O)[C@H](CCC(N)=O)NC(=O)[C@@H](Cc2cccnc2)NC(=O)[C@@](C)(CC(=O)O)NC(=O)[C@H](Cc2c[nH]c3ccccc23)NC(=O)[C@H](CO)NC(=O)C(C)(C)NC1=O [Example 240] (cyclo([Bip(4'-COOH)][4Pal][Phe(4-COOH)]G[Pro(cis-4-F)][Trp(βS-Me,4-F)][Aib]SW[d(αMeD)][d3Pal]Q[Dab]G[X4])) |  | 0.025 nM |
| C[C@@H](c1c[nH]c2cccc(F)c12)[C@@H]1NC(=O)[C@@H]2C[C@H](F)CN2C(=O)CNC(=O)[C@H](Cc2ccc(C(=O)O)cc2)NC(=O)[C@H](CC23CC(C2)C3)NC(=O)[C@H](Cc2ccc(-c3ccc(C(=O)O)cc3)cc2)NC(=O)[C@H]2C[C@@H](Cc3ccncc3)CN2C(=O)CNC(=O)[C@H](CCN)NC(=O)[C@H](CCC(N)=O)NC(=O)[C@H](Cc2cncnc2)NC(=O)[C@@](C)(CC(=O)O)NC(=O)[C@H](Cc2c[nH]c3ccccc23)NC(=O)[C@H](CO)NC(=O)C(C)(C)NC1=O [Example 155] (cyclo([Bip(4'-COOH)][Ala(1-bicyclo(1.1.1)pentyl)][Phe(4-COOH)]G[Pro(cis-4-F)][Trp(βS-Me,4-F)][Aib]SW[d(αMeD)][Ala(pyrimidin-5-yl)]Q[Dab]G[dPro(4R-(4-pyridylmethyl))])) | 0.011 nM |  |
| C[C@@H](c1c[nH]c2cccc(F)c12)[C@@H]1NC(=O)[C@@H]2C[C@H](F)CN2C(=O)CNC(=O)[C@H](Cc2ccc(C(=O)O)cc2)NC(=O)[C@H](Cc2ccncc2)NC(=O)[C@H](Cc2ccc(-c3ccc(C(=O)O)cc3)cc2)NC(=O)[C@H]2C[C@@H](Cc3ccncc3)CN2C(=O)CNC(=O)[C@H](CCN)NC(=O)[C@H](CCC(N)=O)NC(=O)[C@H](CC2CCOCC2)NC(=O)C(C)(C)NC(=O)[C@H](Cc2c[nH]c3ccccc23)NC(=O)[C@H](CO)NC(=O)C(C)(C)NC1=O [Example 211] (cyclo([Bip(4'-COOH)][4Pal][Phe(4-COOH)]G[Pro(cis-4-F)][Trp(βS-Me,4-F)][Aib]SW[Aib][Ala(4-THP)]Q[Dab]G[dPro(4R-(4-pyridylmethyl))])) | 0.019 nM |  |
